The values that follow come from PubChem BioAssay AID1959 (Broad Institute, 2009).

Each structure is given as a SMILES string. Calls of active or inactive are those of the source.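 How the source made its calls: active means growth-inhibition EC50 no more than tenfold above the top tested dose; inconclusive means flat fit between 30% and 70% inhibition, or unreliable fit; inactive means EC50 more than tenfold above the top tested dose.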

The assay relates to E. coli NEB5alpha growth, BacTiter-Glo luminescence, 4 h. In words: antibacterial activity against E. coli NEB5alpha – luminescence, counter-screen for MEX-5/POS-1 RNA-binding inhibitor project, dose response (AID 1959).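 Further: pUC19-transformed ampicillin-resistant cells grown in LB with ampicillin.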
A word on the EC50: it is the midpoint of the concentration-response curve. For the compound `O=C(O)Cn1cc(/C=C2\C(=O)NC(=O)N(c3ccc(F)cc3)C2=O)c2ccccc21`, the EC50 is > 11 µM (inactive). Regarding `Cn1ncc2c(NNC(=O)Cc3ccccc3)ncnc21`, the EC50 was > 11 µM (inactive). The same measure for `Cc1cc(/C=C2\C(=O)NC(=O)N(c3ccc(Cl)cc3)C2=O)c(C)n1-c1cccc(C(=O)O)c1`: > 11 µM (inactive); for `Nc1c(C(=O)N/N=C/c2cccnc2)oc2nc(-c3ccccc3)cc(-c3ccco3)c12`: > 11 µM (inactive).

Regarding `O=C(N/N=C/c1c(O)n(CCc2ccccc2)c(=O)[nH]c1=O)c1ccccc1`, the EC50 was > 11 µM (inactive). Consider `CC1CN(C2CC(C)(C)NC(C)(C)C2)CCC1=O` (centres undefined), for which the EC50 was > 11 µM (inactive).

With `C/C(CCc1oc2ccc(Cl)cc2c1-c1ccc(C)o1)=N\O`, the EC50 was > 11 µM (inactive). As for `COc1cc(C2C(C#N)=C(N)OC3=C2C(=O)CC(C)(C)C3)cc2c1OCO2` (centres undefined), the figure is > 11 µM (inactive); as for `Nc1ccc(Nc2ccccc2)c(S(=O)(=O)O)c1`, > 11 µM (inactive). As for `CC1(C)CC(=O)C2=C(C1)OC(N)=C(C#N)[C@@H]2c1ccccc1[N+](=O)[O-]`, the figure is > 11 µM (inactive); as for `Cc1c(N=Cc2c(O)n(Cc3ccccc3)c(=O)[nH]c2=O)c(=O)n(-c2ccccc2)n1C`, > 11 µM (inactive); as for `O=C(NN1C(=O)c2ccccc2NC1c1ccccn1)c1ccc([N+](=O)[O-])cc1` (centres undefined), > 11 µM (inactive).

In the case of `Cc1ccc(C(=O)O)cc1-n1c(C)cc(C=O)c1C`, the EC50 was > 11 µM (inactive).

For `CC1OC(Oc2c(-c3cc(O)c(O)c(O)c3)oc3cc(O)cc(O)c3c2=O)C(O)C(O)C1O` (centres undefined), the EC50 was > 11 µM (inactive).

For the compound `CCc1ccccc1N1C(=O)NC(=O)/C(=C\c2cc(C)n(C)c2C)C1=O`, the EC50 was > 11 µM (inactive).

Consider `CCOC(=O)c1cc(-c2ccc(/C=C3/C(=O)NC(=O)C(C#N)=C3C)o2)ccc1Cl`, for which the EC50 is > 11 µM (inactive). As to `COc1ccc(N2C(=O)/C(=C/c3ccc(C)o3)C(=O)NC2=S)cc1`, the EC50 is > 11 µM (inactive).

Consider `COc1ccc2c(c1)c1nc3ccccc3nc1n2CCCN1C(=O)c2ccccc2C1=O`, for which the EC50 is > 11 µM (inactive). Take `Nc1cc(C(=O)O)c(N)c2c1C(=O)c1ccccc1C2=O`: the EC50 was > 11 µM (inactive). Consider `N#Cc1cc(NC2CCCC2)c([N+](=O)[O-])cc1C#N`, for which the EC50 was > 11 µM (inactive). As for `Oc1ccc(-c2cn3c(n2)SCC3)cc1O`, the EC50 was > 11 µM (inactive). Regarding `O/C=c1\ccc2cccc3nc(C(F)(F)F)nc1c23`, the EC50 is > 11 µM (inactive).

As for `Cc1cc(/C=C2\C(=O)NC(=O)N(c3ccccc3F)C2=O)c(C)n1-c1cc(C(=O)O)cc(C(=O)O)c1`, the EC50 was > 11 µM (inactive). Consider `CCOC(=O)N1CC=C2C(C#N)=C(N)C(C#N)(C#N)[C@H](c3ccsc3)[C@H]2C1`, for which the EC50 was > 11 µM (inactive). Consider `OCCOc1ccc(C2=NCCO2)cc1`, for which the EC50 is > 11 µM (inactive). Take `COC(=O)c1ccccc1-n1c(CCC(=O)O)ccc1-c1ccccc1`: the EC50 is > 11 µM (inactive).

In the case of `c1coc(-c2nnc(-c3ccco3)nn2)c1`, the EC50 is > 11 µM (inactive). `COc1ccc(/C=C2\N=C(C)OC2=O)cc1OC`: the EC50 is > 11 µM (inactive). `CCOC(=O)c1c(-c2ccccc2)csc1NC(=O)/C(C#N)=C/c1ccc(OC)c(OC)c1`: the EC50 was > 11 µM (inactive).

In the case of `COc1cc2c(cc1C1C(C#N)=C(N)OC3=C1C(=O)CC(C)(C)C3)OCO2` (centres undefined), the EC50 is > 11 µM (inactive). As for `Cc1noc(C)c1S(=O)(=O)NC1CCN(Cc2ccccc2)CC1`, the figure is > 11 µM (inactive). For the compound `Cc1ccccc1C1=N/C(=C/c2cccs2)C(=O)O1`, the EC50 was > 11 µM (inactive). In the case of `CC(=O)N1CCN(c2ccc(N=Cc3c(O)n(Cc4ccccc4)c(=O)[nH]c3=O)cc2)CC1`, the EC50 was > 11 µM (inactive). For the compound `O=C(N=c1ccn(-c2nc3ccccc3nc2NS(=O)(=O)c2ccccc2)cc1)c1ccccc1Cl`, the EC50 was > 11 µM (inactive). With `COc1ccc(OC)c(C(=O)c2coc3ccc(O)c(CN4CCOCC4)c23)c1`, the EC50 was > 11 µM (inactive).

As to `O=C(Cc1ccccc1)NNC(=O)c1cnccn1`, the EC50 is > 11 µM (inactive). The same measure for `O=C(CN1C(=O)C2CC=C(Cl)CC2C1=O)NCc1ccccc1` (centres undefined): > 11 µM (inactive); for `Cc1nn(-c2ccccc2)c(N2CCCC2)c1/C=C1\N=C(c2ccc(F)cc2)OC1=O`: > 11 µM (inactive). As for `Cc1cccc(CN2C(=O)N/C(=C/c3ccc(C)s3)C2=O)c1`, the figure is > 11 µM (inactive); as for `O=C1C(=Cc2cccn2-c2ccccc2)C(=O)c2ccccc21`, > 11 µM (inactive). As for `COC(=O)c1c(Cl)c2n3ccccc3c(C)c(-c3ccccc3)c-2c1C(=O)OC`, the figure is > 11 µM (inactive); as for `COC/C=C/C1=CC2=CC(=O)C(C)(OC(=O)c3cccs3)C(=O)C2=CO1` (centres undefined), > 11 µM (inactive); as for `Cc1ccc(Sc2ccc(C=C3C(=O)N(C)C(=O)N(C)C3=O)o2)cc1`, > 11 µM (inactive). Regarding `CCN(CC)c1ccc(N=Cc2c(O)n(Cc3ccccc3)c(=O)[nH]c2=O)cc1`, the EC50 is > 11 µM (inactive). As for `COC/C=C/C1=CC2=CC(=O)C(C)(OC(=O)CCC(=O)OC)C(=O)C2=CO1` (centres undefined), the EC50 was > 11 µM (inactive). As for `COc1ccc(C2C(C#N)=C(N)OC3=C2C(=O)CC(C)(C)C3)cc1OC` (centres undefined), the figure is > 11 µM (inactive). As to `Nc1c(NCCC2=CCCCC2)c(=O)[nH]c(=O)n1Cc1ccccc1`, the EC50 was > 11 µM (inactive). With `CCCN1CC=C2C(C#N)=C(N)C(C#N)(C#N)C(c3cc(OC)ccc3OC)C2C1` (centres undefined), the EC50 was > 11 µM (inactive).

Take `O=C(O)c1[nH]c2ccccc2c1C(c1cc(Cl)cc([N+](=O)[O-])c1O)c1c(C(=O)O)[nH]c2ccccc12`: the EC50 is > 11 µM (inactive).

Regarding `CCOC(=O)[C@@]1(C#N)C(c2ccc(Cl)c(Cl)c2)[C@H](C(N)=O)N2C=C(C(C)=O)C=C[C@H]21` (some centres undefined), the EC50 is > 11 µM (inactive). The same measure for `CC(=O)Oc1cc2cccc(OC(C)=O)c(=O)c2c(OC(C)=O)c1OC(C)=O`: > 11 µM (inactive); for `CNc1nnc(-c2cc3ccccc3oc2=O)s1`: > 11 µM (inactive); for `CC(Cc1ccc(O)c(O)c1)C(C)Cc1ccc(O)c(O)c1` (centres undefined): > 11 µM (inactive). On to `CCCCN(C(=O)c1ccc([N+](=O)[O-])o1)c1c(N)n(CC(C)C)c(=O)[nH]c1=O`, for which the EC50 was > 11 µM (inactive).

In the case of `COc1cccc(C(=O)NCC(=O)NNc2ncnc(N)c2[N+](=O)[O-])c1`, the EC50 was > 11 µM (inactive). As for `NC(CO)C(=O)NNCc1ccc(O)c(O)c1O` (centres undefined), the EC50 was > 11 µM (inactive). As for `O=C1c2cc(F)ccc2-n2c1nc1ccccc1c2=O`, the figure is > 11 µM (inactive); as for `COc1ccc(N=Cc2c(O)c3ccccc3n2C(C)=O)cc1`, > 11 µM (inactive); as for `CCOn1c(=O)c(-c2cc3ccccc3o2)[n+]([O-])c2ccccc21`, > 11 µM (inactive).

As to `COc1cc(C2C(C#N)=C(N)Oc3n[nH]c(-c4cccnc4)c32)cc(Br)c1O` (centres undefined), the EC50 is > 11 µM (inactive). Take `CCN1CCN(Cc2c(C(=O)N/N=C(\C)c3ccc(Cl)cc3)nnn2-c2nonc2N)CC1`: the EC50 was > 11 µM (inactive).

For the compound `CCC(=O)OC1(C)C(=O)C=C2C=C(c3ccsc3)OC=C2C1=O` (centres undefined), the EC50 was > 11 µM (inactive).

On to `CCn1nc(C)c(/C=C2\CCCC3=C2OC(N)=C(C#N)C3c2c(C)nn(CC)c2C)c1C` (centres undefined), for which the EC50 was > 11 µM (inactive). The same measure for `CCOc1ccc(C2OC34CCCCC3C(C#N)(C#N)C2(C#N)C(=N)O4)cc1OC` (centres undefined): > 11 µM (inactive); for `c1ccc(C2=NNC(c3ccccn3)=NN2)nc1`: > 11 µM (inactive). For the compound `CC1(C)CC(=O)C2=C(C1)OC(N)=C(C#N)C2c1cccc(OC(=O)c2ccco2)c1` (centres undefined), the EC50 was > 11 µM (inactive). With `O=C(N/N=C/c1c(O)n(Cc2ccccc2)c(=O)[nH]c1=O)c1ccncc1`, the EC50 is > 11 µM (inactive). As for `Cc1cc(C=C2C(=O)NC(=O)NC2=O)c(C)n1-c1cccnc1`, the EC50 was > 11 µM (inactive). Regarding `COC(=O)c1c(=O)n(O)c2ccc(OC)cc2[n+]1[O-]`, the EC50 was > 11 µM (inactive). As for `CC1=CC(C)(C)N2C(=O)C3(C(C#N)=C(N)OC4=C3C(=O)CC(C)(C)C4)c3cccc1c32` (centres undefined), the figure is > 11 µM (inactive); as for `Cc1cc(/C=C2\C(=O)NC(=O)N(c3ccccc3)C2=O)c(C)n1-c1ccc(C(=O)O)c(Cl)c1`, > 11 µM (inactive). Regarding `O=C(Nc1ccc(Br)cn1)c1ccc2nccnc2c1`, the EC50 is > 11 µM (inactive). For the compound `Cc1cccn2c(=O)c3cc(C#N)c(=NC(=O)c4cccs4)n(CCCOC(C)C)c3nc12`, the EC50 was > 11 µM (inactive). For `NC1=CC(=O)c2cccc3cccc1c23`, the EC50 is > 11 µM (inactive).

Regarding `O=C(N/N=C/c1cc(Cl)cc([N+](=O)[O-])c1O)c1ccc2c(c1)OCO2`, the EC50 was > 11 µM (inactive). Regarding `CCOC(=O)c1c2c3c(cccc3n(C)c1=O)C(=O)c1ccccc1-2`, the EC50 was > 11 µM (inactive). As for `O=c1[nH]n(-c2ncnc3c2cnn3-c2ccccc2)c(=O)c2ccccc12`, the EC50 was > 11 µM (inactive). Turning to `COc1cccc(/C=C2\SC(=S)N(CCCC(=O)NC3=NCCS3)C2=O)c1`, the EC50 was > 11 µM (inactive). As to `O=c1[nH]c2c(s1)C=Nc1ccccc1N2`, the EC50 is > 11 µM (inactive).

In the case of `O=C1c2ccccc2-c2onc3ccc(NCc4ccco4)c1c23`, the EC50 is > 11 µM (inactive).

On to `COc1ccc(N/C=C\C(=O)c2ccc(C)cc2)cc1OC`, for which the EC50 was > 11 µM (inactive). In the case of `Cc1ccc(N2C(=O)NC(=O)/C(=C/c3cnn(-c4ccc(C)cc4)c3)C2=O)cc1`, the EC50 was > 11 µM (inactive). Take `Cc1ccc2oc(=O)c(/C=C(\O)c3cccs3)nc2c1`: the EC50 is > 11 µM (inactive).

For `COC(=O)CCCC1=CC2=CC(=O)C(C)(OC(=O)c3cnc4ccccc4n3)C(=O)C2=CO1` (centres undefined), the EC50 was > 11 µM (inactive).
